Laboratory results taken from patent publication US20230002374A1, “GPR52 MODULATOR COMPOUNDS” (Heptares Therapeutics Limited, priority 2019, published 2023).
pEC50: −log10 of the molar value.

Columns and labels:
human GPR52 [1] = molecular target: T1, human GPR52 (Homo sapiens, UniProt Q9Y2T5); test: GPR52 Agonist Functional cAMP Assay;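 as to all read-outs here: HEKf cells transduced with GPR52 BacMam for 24 h, 2000 per well, exposed to compounds 30 min at 37° C with 0.5 mM IBMX, cAMP read by HTRF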; settings: for pEC50: pEC50 average, HEKf cells infected with human GPR52 BacMam virus, cAMP HTRF, 30 min at 37° C.; for Emax: maximal response normalised to DMSO (0%) and maximal compound 7m (J. Med. Chem., 2014, 57, 5226) response (100%)
human GPR52 [2] = molecular target: T1, human GPR52
[3] = system: subchronic PCP induced cognitive deficit; test: Subchronic PCP-induced reversal learning deficit in rat; assay type: in vivo, female Lister Hooded rats; settings: 6 mg/kg IP, 60 min prior to testing
Method: Testing was carried out in the light phase. Rats underwent operant training firstly to press the left/right lever for a food reward in the presence or absence of a visual cue, and then to respond to the opposite contingency. The reversal learning task was introduced as follows. On the day before each reversal task session, a full 30-minute operant training session was conducted in order to ensure stable responding. In the initial task, animals were first exposed to a five-minute period during which the contingency (cue position relative to active lever) was the same as for the operant training session. This was followed by a 2-minute time-out period, which was signalled by the house-light being turned off. In the subsequent 5-minute period (reversal task), the contingency was reversed. Responses made on the correct and incorrect levers were recorded. Animals undertook several of these reversal learning task sessions before the beginning of the drug studies in order to ensure that they attained a stable level of performance in both phases of the task. […] At this stage, training ceased and rats were treated with PCP (2 mg/kg, IP or vehicle 0.9% saline, IP) for 7 days followed by at least 7-days washout period.
In the initial phase, the reward contingency was the same as the previous day and in the reversal phase the reward contingency was reversed.
Data are presented as mean total number of lever presses (+SEM) and percent correct response (+SEM). […] Statistical significance was assumed when P<0.05 and was determined as follows: one-way ANOVA (IBM SPSS Statistics 22) was performed in order to detect main effect of drug treatment in the initial and reversal tasks. Where a significant effect was detected, a post-hoc LSD t-test was performed in order to compare treatment groups versus the appropriate control in the reversal phase of the test.
Data are shown as mean±s.e.m. % correct responding (n=8-10) and were analysed by ANOVA and post-hoc Student's t-test.
Data are shown as the mean total number of lever presses, correct responses are shown as clear bars and incorrect responses are shown as shaded bars (n=8-10).

T1 sequence (Q9Y2T5 whole entry): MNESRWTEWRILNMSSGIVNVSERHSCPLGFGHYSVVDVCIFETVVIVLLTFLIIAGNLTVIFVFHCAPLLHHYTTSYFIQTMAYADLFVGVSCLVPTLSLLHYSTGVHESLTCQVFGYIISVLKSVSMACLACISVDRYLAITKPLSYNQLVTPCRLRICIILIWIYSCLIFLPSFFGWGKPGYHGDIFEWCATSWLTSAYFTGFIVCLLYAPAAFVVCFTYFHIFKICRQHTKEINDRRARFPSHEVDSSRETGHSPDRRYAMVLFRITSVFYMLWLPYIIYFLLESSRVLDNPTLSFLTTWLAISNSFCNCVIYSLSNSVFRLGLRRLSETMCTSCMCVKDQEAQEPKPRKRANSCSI

pEC50 (human GPR52 [1])	Emax (%) (human GPR52 [2])	Emax (human GPR52 [1])	Structure (SMILES)	effect on total number of lever presses ([3]; scPCP treated rats)	reversal of subchronic PCP reversal learning deficit (percent correct responding, reversal phase) ([3]; vs vehicle-treated subchronic PCP group)
7.60	103%	–	Cc1nn(-c2ccnc(C(O)c3cc(F)cc(C(F)(F)F)c3)c2)c2c1C(=O)NCC2 (single isomer, unassigned) [117 Isomer 2, 1-(2-((3-fluoro-5-(trifluoromethyl)phenyl)(hydroxy)methyl)pyridin-4-yl)-3-methyl-1,5,6,7-tetrahydro-4H-pyrazolo[4,3-c]pyridin-4-one]	–	–
8.10	101%	–	Cc1nn(-c2cc(C(O)c3cc(F)cc(C(F)(F)F)c3)ccn2)c2c1C(=O)NCC2 (single isomer, unassigned) [118 Isomer 2, 1-(4-((3-fluoro-5-(trifluoromethyl)phenyl)(hydroxy)methyl)pyridin-2-yl)-3-methyl-1,5,6,7-tetrahydro-4H-pyrazolo[4,3-c]pyridin-4-one]	–	–
5.80	72%	–	O=C1NCCc2c1cnn2-c1ccnc(C(O)c2cc(F)cc(C(F)(F)F)c2)c1 (single isomer, unassigned) [Example 36 Isomer 1, 1-(2-((3-fluoro-5-(trifluoromethyl)phenyl)(hydroxy)methyl)pyridin-4-yl)-1,5,6,7-tetrahydro-4H-pyrazolo[4,3-c]pyridin-4-one]	–	–
6.60	94%	–	O=C1NCCc2c1cnn2-c1ccnc(C(O)c2cc(F)cc(C(F)(F)F)c2)c1 (single isomer, unassigned) [Example 36 Isomer 2, 1-(2-((3-fluoro-5-(trifluoromethyl)phenyl)(hydroxy)methyl)pyridin-4-yl)-1,5,6,7-tetrahydro-4H-pyrazolo[4,3-c]pyridin-4-one]	–	–
6.90	83%	–	CC1Cc2c(cnn2-c2ccnc(Cc3cc(F)cc(C(F)(F)F)c3)c2)C(=O)N1 (single isomer, unassigned) [Example 40 Isomer 2, 1-(2-(3-fluoro-5-(trifluoromethyl)benzyl)pyridin-4-yl)-6-methyl-1,5,6,7-tetrahydro-4H-pyrazolo[4,3-c]pyridin-4-one]	–	–
8.20	–	98%	Cc1nn(-c2cc(Cc3cc(F)cc(C(F)(F)F)c3)ccn2)c2c1C(=O)NCC2 [Example 95, 1-(4-(3-fluoro-5-(trifluoromethyl)benzyl)pyridin-2-yl)-3-methyl-1,5,6,7-tetrahydro-4H-pyrazolo[4,3-c]pyridin-4-one]	–	–
6.10	–	94%	N#Cc1cc(F)cc(Cc2cc(-n3ncc4c3CCNC4=O)ccn2)c1 [Example 96, 3-fluoro-5-((4-(4-oxo-4,5,6,7-tetrahydro-1H-pyrazolo[4,3-c]pyridin-1-yl)pyridin-2-yl)methyl)benzonitrile]	–	–
5.60	–	90%	O=C1NCCCc2c1nnn2-c1ccnc(Cc2cc(F)cc(C(F)(F)F)c2)c1 [Example 97, 1-(2-(3-fluoro-5-(trifluoromethyl)benzyl)pyridin-4-yl)-5,6,7,8-tetrahydro-[1,2,3]triazolo[4,5-c]azepin-4(1H)-one]	–	–
6.80	–	92%	O=C1NCCc2nn(-c3cc(Cc4cc(F)cc(C(F)(F)F)c4)ccn3)nc21 [Example 98, 2-(4-(3-fluoro-5-(trifluoromethyl)benzyl)pyridin-2-yl)-2,5,6,7-tetrahydro-4H-[1,2,3]triazolo[4,5-c]pyridin-4-one]	–	–
6.90	–	95%	O=C1NCCc2c1nnn2-c1cc(Cc2cc(F)cc(C(F)(F)F)c2)ccn1 [Example 99, 1-(4-(3-fluoro-5-(trifluoromethyl)benzyl)pyridin-2-yl)-1,5,6,7-tetrahydro-4H-[1,2,3]triazolo[4,5-c]pyridin-4-one]	–	–
8.00	–	98%	O=C1NCCc2c1cnn2-c1cc(Cc2cc(F)cc(C(F)F)c2)ccn1 [Example 102, 1-(4-(3-(difluoromethyl)-5-fluorobenzyl)pyridin-2-yl)-1,5,6,7-tetrahydro-4H-pyrazolo[4,3-c]pyridin-4-one]	–	–
6.00	–	68%	O=C1NCCc2c1cnn2-c1cncc(Oc2cc(F)cc(C(F)(F)F)c2)c1 [Example 103, 1-(5-(3-fluoro-5-(trifluoromethyl)phenoxy)pyridin-3-yl)-1,5,6,7-tetrahydro-4H-pyrazolo[4,3-c]pyridin-4-one]	–	–
7.00	–	94%	COCCN1CCc2c(cnn2-c2ccnc(Cc3cc(F)cc(C(F)(F)F)c3)c2)C1=O [Example 104, 1-(2-(3-fluoro-5-(trifluoromethyl)benzyl)pyridin-4-yl)-5-(2-methoxyethyl)-1,5,6,7-tetrahydro-4H-pyrazolo[4,3-c]pyridin-4-one]	–	–
7.20	–	97%	O=C1c2cnn(-c3ccnc(Cc4cc(F)cc(C(F)(F)F)c4)c3)c2CCN1CCO [Example 105, 1-(2-(3-fluoro-5-(trifluoromethyl)benzyl)pyridin-4-yl)-5-(2-hydroxyethyl)-1,5,6,7-tetrahydro-4H-pyrazolo[4,3-c]pyridin-4-one]	–	–
7.50	–	86%	COCCN1CCc2c(cnn2-c2cc(Cc3cc(F)cc(C(F)(F)F)c3)ccn2)C1=O [Example 106, 1-(4-(3-fluoro-5-(trifluoromethyl)benzyl)pyridin-2-yl)-5-(2-methoxyethyl)-1,5,6,7-tetrahydro-4H-pyrazolo[4,3-c]pyridin-4-one]	–	–
7.90	–	99%	O=C1c2cnn(-c3cc(Cc4cc(F)cc(C(F)(F)F)c4)ccn3)c2CCN1CCO [Example 107, 1-(4-(3-fluoro-5-(trifluoromethyl)benzyl)pyridin-2-yl)-5-(2-hydroxyethyl)-1,5,6,7-tetrahydro-4H-pyrazolo[4,3-c]pyridin-4-one]	–	–
7.10	–	80%	Cc1cnc(Cc2cc(F)cc(C(F)(F)F)c2)cc1-n1ncc2c1CCNC2=O [Example 108, 1-(2-(3-fluoro-5-(trifluoromethyl)benzyl)-5-methylpyridin-4-yl)-1,5,6,7-tetrahydro-4H-pyrazolo[4,3-c]pyridin-4-one]	–	–
6.30	–	74%	O=C1NCCc2c1cnn2-c1ccnc(Cc2cnc(OC(F)F)c(F)c2)c1 [Example 110, 1-(2-((6-(difluoromethoxy)-5-fluoropyridin-3-yl)methyl)pyridin-4-yl)-1,5,6,7-tetrahydro-4H-pyrazolo[4,3-c]pyridin-4-one]	–	–
7.20	–	87%	Cc1nn(-c2ccnc(Cc3cnc(OC(F)F)c(F)c3)c2)c2c1C(=O)NCC2 [Example 111, 1-(2-((6-(difluoromethoxy)-5-fluoropyridin-3-yl)methyl)pyridin-4-yl)-3-methyl-1,5,6,7-tetrahydro-4H-pyrazolo[4,3-c]pyridin-4-one]	–	–
6.40	–	77%	O=C1NCCOc2nn(-c3ccnc(Cc4cc(F)cc(C(F)(F)F)c4)c3)cc21 [Example 112, 2-(2-(3-fluoro-5-(trifluoromethyl)benzyl)pyridin-4-yl)-6,7-dihydro-2H-pyrazolo[4,3-f][1,4]oxazepin-4(5H)-one]	–	–
7.80	–	95%	O=C1NCCc2c1c(CO)nn2-c1cc(Cc2cc(F)cc(C(F)(F)F)c2)ccn1 [Example 113, 1-(4-(3-fluoro-5-(trifluoromethyl)benzyl)pyridin-2-yl)-3-(hydroxymethyl)-1,5,6,7-tetrahydro-4H-pyrazolo[4,3-c]pyridin-4-one]	–	–
7.40	–	93%	O=C1NCCc2c1c(CO)nn2-c1ccnc(Cc2cc(F)cc(C(F)(F)F)c2)c1 [Example 114, 1-(2-(3-fluoro-5-(trifluoromethyl)benzyl)pyridin-4-yl)-3-(hydroxymethyl)-1,5,6,7-tetrahydro-4H-pyrazolo[4,3-c]pyridin-4-one]	–	–
7.60	–	91%	N#Cc1nn(-c2ccnc(Cc3cc(F)cc(C(F)(F)F)c3)c2)c2c1C(=O)NCC2 [Example 115, 1-(2-(3-fluoro-5-(trifluoromethyl)benzyl)pyridin-4-yl)-4-oxo-4,5,6,7-tetrahydro-1H-pyrazolo[4,3-c]pyridine-3-carbonitrile]	–	–
8.30	–	95%	O=C1NCCc2c1c(C(F)(F)F)nn2-c1ccnc(Cc2cc(F)cc(C(F)(F)F)c2)c1 [Example 116, 1-(2-(3-fluoro-5-(trifluoromethyl)benzyl)pyridin-4-yl)-3-(trifluoromethyl)-1,5,6,7-tetrahydro-4H-pyrazolo[4,3-c]pyridin-4-one]	–	–
–	–	–	Oc1cc2c(cc1O)C(c1ccccc1)CNCC2 (centres unmarked) [SKF-38393, reference compound]	no significant effects	significantly (P<0.05−P<0.001) reversed the deficit
